From US20210000782A1, “APPLICATION OF DROFENINE OR SALT THEREOF TO PREPARATION OF MEDICINE FOR TREATING PERIPHERAL NEURON AXONAL INJURY AND PERIPHERAL RELATED NEUROPATHY” (NANJING UNIVERSITY OF CHINESE MEDICINE, priority 2018, published 2021)

What was measured:
[1] = system: db/db type II diabetic mice; assay: Motor nerve conduction velocity, type II diabetic peripheral neuropathy; assay type: in vivo; details: for Motor nerve conduction velocity: db/db mice, n = 6
Description: (§1) 2) Animal grouped administration condition (type II diabetic mice): 16-week-old db/db mice were selected and subjected to adaptive feeding for a week. Grouping was performed according to body weights and blood glucose to obtain a control group, a model group, a drofenine low-dose group (10 mg/kg), and a drofenine medium-dose group (20 mg/kg). Before administration, the motor nerve conduction velocity and a 50% mechanical pain threshold were measured to determine DPN symptoms. Intraperitoneal injection of drofenine was performed for 4 weeks. The mechanical pain, heat pain and motor nerve conduction velocity were tested in each week.
(§2) 5) Motor nerve conduction velocity testing experiment: (1) Electrode placement: A stimulation electrode was placed at a nerve trunk, a recording electrode was placed at a muscle belly, a reference electrode was placed at a muscle tendon, and a ground wire was placed between the stimulation electrode and the recording electrode. (2) Motor nerve conduction velocity calculation: Super-strong stimulation was performed on distal and proximal ends of the nerve trunk, 2 compound muscle action potentials might be recorded on muscles dominated by this nerve, and different latency periods thereof were measured. The nerve conduction velocity was obtained by dividing a distance between the distal and proximal ends by a latency period difference between two points. A calculation formula was: Nerve conduction velocity (m/s)=distance between two points (cm)×10/latency period difference between two points.

[2] = system: STZ-induced type I diabetic mice; assay: Heat pain testing experiment, type I diabetic peripheral neuropathy; assay type: in vivo, C57BL/6J mice; details: n = 6
Description: (§3) 1) Animal grouped administration condition (type I diabetic mice): C57BL/6J mice were purchased from Beijing Vital River. After adaptive feeding for a week, intraperitoneal injection of STZ (180 mg/kg) was performed. Blood glucose was measured after 4-7 days. Mice with the blood glucose higher than 16 mmol/L were randomly selected. After 6 weeks after the STZ injection, grouping was performed according to body weights and the blood glucose to obtain a control group (non-diabetic mice), a model group (DPN mice), drofenine (10 mg/kg), and drofenine (20 mg/kg). Intraperitoneal injection of drofenine was performed for 4 weeks. The motor nerve conduction velocity, mechanical pain and heat pain were respectively tested in 0th week, 4th week and 8th week after the STZ injection.
(§4) 2) Von Frey tactile measuring suits were purchased from a company, and a plantar test instrument was purchased from UGO company.
(§5) 4) Heat pain testing experiment: An infrared instrument was placed under the sole of the mouse, and kept still. The time was recorded when the paw of the mouse withdrew. This time was heat pain response time of the mouse.

[3] = system: STZ-induced type I diabetic mice; assay: Motor nerve conduction velocity, type I diabetic peripheral neuropathy; assay type: in vivo, C57BL/6J mice; details: for Motor nerve conduction velocity: STZ mice, n = 6
Description: as §3, §2

BChE = BChE (Homo sapiens, UniProt P06276); details: background statement; cited from earlier work
[4] = system: db/db type II diabetic mice; assay: Heat pain testing experiment, type II diabetic peripheral neuropathy; assay type: in vivo; details: n = 6
Description: as §1, §4, §5

[5] = system: STZ-induced type I diabetic mice; assay: Paw withdrawal experiment (Von Frey, 50% mechanical pain threshold), type I diabetic peripheral neuropathy; assay type: in vivo, C57BL/6J mice; details: n = 6
Description: (§6) The experiment was based on that when rodents received a mechanical stimulation at their paws, they generated withdrawal reflex. A Von Frey may provide stimulation force in a range of 0.008 g to 300 g. A magnitude of the stimulation force was determined by a thickness and an extending length of a nylon wire. The nylon wire with a proper thickness was selected according to practical conditions in the experiment. The proper extending length was regulated to realize vertical stimulation on the skin. The magnitude of the stimulation force might be regulated by regulating the extending length and changing the nylon wire until the nylon wire bended. The response of mice on the pain was evaluated on the basis.
as §3, §4
(§7) 3) Paw withdrawal Experiment: A nylon wire with a proper thickness was selected. A proper extending length was regulated to realize vertical simulation on the skin. The magnitude of stimulation force might be regulated by regulating the extending length and changing the nylon wire until the nylon wire bended. Each mouse was tested for six times to determine a threshold. A 50% mechanical pain threshold of the mice was calculated according to 50% threshold=(10^ (x^f+kδ))/10000.

[6] = system: DRG primary cells (peripheral sensory neurons); assay: Growth of peripheral sensory neurites, β-tubulin III fluorescent staining; assay type: cell-based, C57BL6 mouse; details: 24 hours incubation with different concentrations of drofenine, FIG. 1 and FIG. 2
Description: The experiment was based on that DPN firstly leads to abnormality of sensory neurons, and the main pathological changes were axonal atrophy and degeneration, or even disappearance. For DRG, as peripheral sensory neurons, its neurite growth state is closely related to a development process of the DPN. The inventor of the present invention added DMSO and different concentrations of drofenine into DRG primary cells for common incubation for a certain time. Then, the growth of the neurites was determined by a β-tubulin III fluorescent staining detection method, and lengths were quantified by ImageJ. The effect of the drofenine on promoting the growth of the peripheral sensory neurites was evaluated on the basis.
1) β-tubulin III for fluorescent staining was purchased from Sigma company. All cell culture reagents were purchased from Gibco company. DRG cells were taken from C57BL6 mouse spines.
2) β-tubulin III staining experiment: DRG cells were inoculated in a 12-hole plate at 100 cells/hole. After the DRG cells were attached to a wall overnight, incubation was performed for 24 hours by different concentrations of drofenine. Then, an original culture medium is removed. 4% of paraformaldehyde was added into each hole for immobilization for 15 min. Permeabilization was performed for 5 min by 0.3% Triton. After PBS washing, room-temperature sealing was performed for 1 h. […]

[7] = system: db/db type II diabetic mice; assay: Paw withdrawal experiment (Von Frey, 50% mechanical pain threshold), type II diabetic peripheral neuropathy; assay type: in vivo; details: n = 6
Description: as §6, §1, §4, §7

[8] = 10 mg/kg intraperitoneal, administration week 0, mean ± SEM
[9] = 10 mg/kg intraperitoneal, administration week 1, mean ± SEM
[10] = 10 mg/kg intraperitoneal, administration week 2, mean ± SEM
[11] = 10 mg/kg intraperitoneal, administration week 3, mean ± SEM
[12] = 10 mg/kg intraperitoneal, administration week 4, mean ± SEM
[13] = 20 mg/kg intraperitoneal, administration week 0, mean ± SEM
[14] = 20 mg/kg intraperitoneal, administration week 1, mean ± SEM
[15] = 20 mg/kg intraperitoneal, administration week 2, mean ± SEM
[16] = 20 mg/kg intraperitoneal, administration week 3, mean ± SEM
[17] = 20 mg/kg intraperitoneal, administration week 4, mean ± SEM

BChE, sequence (P06276 29-602, species assumed): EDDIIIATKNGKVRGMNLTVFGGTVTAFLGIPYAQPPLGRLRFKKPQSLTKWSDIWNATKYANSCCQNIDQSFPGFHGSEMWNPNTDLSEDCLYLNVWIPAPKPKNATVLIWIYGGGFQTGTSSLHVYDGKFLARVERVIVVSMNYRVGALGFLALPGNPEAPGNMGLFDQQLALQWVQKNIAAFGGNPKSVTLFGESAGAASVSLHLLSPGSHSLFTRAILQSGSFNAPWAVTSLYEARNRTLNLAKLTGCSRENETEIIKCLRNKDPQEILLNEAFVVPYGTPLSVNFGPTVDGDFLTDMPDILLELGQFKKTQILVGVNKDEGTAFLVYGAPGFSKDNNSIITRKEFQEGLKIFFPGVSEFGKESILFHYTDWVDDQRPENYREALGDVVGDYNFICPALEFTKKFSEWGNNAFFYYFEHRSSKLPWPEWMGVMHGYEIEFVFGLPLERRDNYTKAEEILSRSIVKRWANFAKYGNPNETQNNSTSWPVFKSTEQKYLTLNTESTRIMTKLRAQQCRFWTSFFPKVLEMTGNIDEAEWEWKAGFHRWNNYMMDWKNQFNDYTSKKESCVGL

In the case of CCN(CC)CCOC(=O)C(c1ccccc1)C1CCCCC1 (stereo not shown) [Drofenine], the “Motor nerve conduction velocity” value [1, 8] was 34.61 ± 1.06 m/s, the “Motor nerve conduction velocity” value [1, 9] was 36.55 ± 2.14 m/s and the “Motor nerve conduction velocity” value [1, 10] was 38.23 ± 3.20 m/s. The “Motor nerve conduction velocity” value [1, 11] was 39.34 ± 2.89 m/s, the “Motor nerve conduction velocity” value [1, 12] was 40.12 ± 2.87 m/s and the “Motor nerve conduction velocity” value [1, 13] was 35.63 ± 1.03 m/s. For the same compound, the “Motor nerve conduction velocity” value [1, 14] was 38.82 ± 1.37 m/s, the “Motor nerve conduction velocity” value [1, 15] was 40.23 ± 2.02 m/s and the “Motor nerve conduction velocity” value [1, 16] was 41.56 ± 2.35 m/s. The “Motor nerve conduction velocity” value [1, 17] was 42.28 ± 2.26 m/s, the “motor nerve conduction velocity and sensation loss of db/db type II diabetic peripheral neuropathy” value ([1]; summary in words of Tables 4-6, db/db mice) was “significantly relieve” and the Heat response [2, 8] was 11.43 ± 0.98 s. The Heat response [2, 9] was 11.12 ± 0.66 s, the Heat response [2, 10] was 10.28 ± 0.68 s and the Heat response [2, 11] was 8.96 ± 0.26 s. For the same compound, the Heat response [2, 12] was 8.78 ± 0.26 s, the Heat response [2, 13] was 10.3 ± 0.60 s and the Heat response [2, 14] was 10.77 ± 0.94 s. It also gave a Heat response [2, 15] of 8.64 ± 0.69 s, a Heat response [2, 16] of 7.91 ± 0.54 s and a Heat response [2, 17] of 7.71 ± 0.68 s. For the same compound, the “Motor nerve conduction velocity” value [3, 8] was 39.61 ± 1.06 m/s, the “Motor nerve conduction velocity” value [3, 10] was 40.55 ± 2.14 m/s and the “Motor nerve conduction velocity” value [3, 13] was 40.63 ± 1.03 m/s. The “Motor nerve conduction velocity” value [3, 15] was 43.82 ± 1.37 m/s, the “motor nerve conduction velocity and sensation loss of the type I diabetic peripheral neuropathy” value ([3]; summary in words of Tables 1-3, STZ mice) was “significantly relieve” and the BChE inhibition (BChE) was “effective BChE competitive inhibitor”. The Heat response [4, 8] was 10.43 ± 0.98 s, the Heat response [4, 9] was 13.52 ± 0.69 s and the Heat response [4, 10] was 10.58 ± 0.32 s. For the same compound, the Heat response [4, 11] was 8.96 ± 0.56 s, the Heat response [4, 12] was 9.78 ± 0.56 s and the Heat response [4, 13] was 10.39 ± 0.30 s. For the same compound, the Heat response [4, 14] was 10.77 ± 0.54 s, the Heat response [4, 15] was 8.54 ± 0.79 s and the Heat response [4, 16] was 8.51 ± 0.55 s. For the same compound, the Heat response [4, 17] was 8.01 ± 0.68 s, the “50% paw withdrawal threshold” value [5, 8] was 2.77 ± 0.19 g and the “50% paw withdrawal threshold” value [5, 9] was 2.53 ± 0.25 g. For the same compound, the “50% paw withdrawal threshold” value [5, 10] was 1.31 ± 0.13 g, the “50% paw withdrawal threshold” value [5, 11] was 1.40 ± 0.13 g and the “50% paw withdrawal threshold” value [5, 12] was 1.45 ± 0.11 g. For the same compound, the “50% paw withdrawal threshold” value [5, 13] was 2.77 ± 0.19 g, the “50% paw withdrawal threshold” value [5, 14] was 2.06 ± 0.31 g and the “50% paw withdrawal threshold” value [5, 15] was 1.31 ± 0.13 g. For the same compound, the “50% paw withdrawal threshold” value [5, 16] was 1.27 ± 0.12 g, the “50% paw withdrawal threshold” value [5, 17] was 1.35 ± 0.10 g and the “growth of the peripheral sensory neurites” value [6] was “promote the growth (quantitative diagram) of the peripheral sensory neurites in a concentration dependent way”. The “50% paw withdrawal threshold” value [7, 8] was 2.81 ± 0.17 g, the “50% paw withdrawal threshold” value [7, 9] was 2.82 ± 0.22 g and the “50% paw withdrawal threshold” value [7, 10] was 2.21 ± 0.13 g. The “50% paw withdrawal threshold” value [7, 11] was 2.09 ± 0.34 g, the “50% paw withdrawal threshold” value [7, 12] was 1.98 ± 0.21 g and the “50% paw withdrawal threshold” value [7, 13] was 2.83 ± 0.19 g. The “50% paw withdrawal threshold” value [7, 14] was 2.62 ± 0.26 g, the “50% paw withdrawal threshold” value [7, 15] was 2.01 ± 0.13 g and the “50% paw withdrawal threshold” value [7, 16] was 1.92 ± 0.12 g. For the same compound, the “50% paw withdrawal threshold” value [7, 17] was 1.82 ± 0.01 g.
